Target: T1, Interleukin-1 receptor-associated kinase 4 (Homo sapiens, UniProt Q9NWZ3)
T1 sequence (Q9NWZ3 whole entry): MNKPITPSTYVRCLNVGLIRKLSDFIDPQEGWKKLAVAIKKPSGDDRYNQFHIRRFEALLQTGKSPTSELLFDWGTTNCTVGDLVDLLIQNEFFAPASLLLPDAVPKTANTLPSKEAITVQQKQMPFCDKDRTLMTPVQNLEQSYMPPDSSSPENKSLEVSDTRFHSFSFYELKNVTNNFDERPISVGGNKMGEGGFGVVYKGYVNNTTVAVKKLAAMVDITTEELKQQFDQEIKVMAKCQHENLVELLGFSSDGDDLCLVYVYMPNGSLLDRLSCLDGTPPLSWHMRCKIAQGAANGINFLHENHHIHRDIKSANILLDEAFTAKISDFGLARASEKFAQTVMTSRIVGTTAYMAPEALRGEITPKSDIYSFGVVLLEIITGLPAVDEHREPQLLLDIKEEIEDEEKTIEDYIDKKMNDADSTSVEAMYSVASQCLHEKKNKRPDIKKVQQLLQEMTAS
Test: Potency of IRAK4 Inhibitor Compounds in IRAK4 Enzyme Assay
Description: The inhibitory activity of compounds against IRAK4 were determined in an enzymatic assay using mass spectrometry readout. Ten point half-log compound concentration response curves, with a top concentration of 1 μM or 10 μM, were generated from 10 mM stocks of compound solubilized in DMSO using an Echo 655 (Labcyte Inc) and added to 384 well assay plates (Greiner #781280). To the assay plates, 10 μL of human recombinant IRAK4 protein (Life Technologies #PV4002) diluted to a final concentration of 0.2 nM in assay buffer (50 mM Tris-HCl pH 7.4, 10 mM MgCl, 5 mM glutathione, 0.01% BSA, 3 mM ATP) was added. The enzyme was incubated with the compounds at room temperature for 15 minutes before a peptide substrate ([…], Innovagen custom synthesis, 10 mM in DMSO) was added to each well to a final concentration of 10 μM using an Echo 655 (Labcyte Inc). After two hours at room temperature, the reaction was stopped with 90 μL of 0.4% formic acid (Merck #33015). The unphosphorylated and phosphorylated peptide were measured by LC-MS/MS on a Waters TQ-S mass spectrometer. Peaks were integrated using the TargetLynx software and the ratios between phosphorylated and unphosphorylated peptides were calculated.

SMILES	IC50
COc1cc2nn([C@H]3CC[C@H](N(C)C(=O)[C@H](C)O)CC3)cc2cc1C(=O)Nc1cnc2cccnn12 [US11866405, Example 94]	0.3 nM
COc1cc2nn([C@H]3CC[C@H](N(C)C(=O)[C@@H]4CC[C@H](O)C4)CC3)cc2cc1C(=O)Nc1cnn2cccnc12 (relative stereo) [US11866405, Example 115]	0.8 nM
COc1cc2nn([C@H]3CC[C@H](O)C[C@@H]3C)cc2cc1C(=O)Nc1cnn2cccnc12 [US11866405, Example 40]	6.3 nM
COc1cc2nn([C@H]3CCC[C@H](O)[C@@H]3C)cc2cc1C(=O)Nc1cnc2cccnn12 (relative stereo) [US11866405, Example 106]	0.6 nM

More lines, in order of falling IC50, values ahead:

IC50	SMILES
1.4 nM	C[C@H]1C[C@@H](O)CC[C@@H]1n1cc2cc(C(=O)Nc3cnn4cccnc34)c(OC3CC3)cc2n1 [US11866405, Example 45]
0.7 nM	COc1cc2nn([C@@H]3CC[C@]4(CCC(=O)N4C)C[C@H]3C)cc2cc1C(=O)Nc1cnc2cccnn12 (relative stereo; form 2) [US11866405, Example 122]
0.6 nM	C[C@@]1(O)CCC[C@H](n2cc3cc(C(=O)Nc4cnn5cccnc45)c(OC4CC4)cc3n2)C1 (relative stereo) [US11866405, Example 54]

From BindingDB's records for patent US11866405 (Astrazeneca, 2024)
